Assay results from patent US20250002455A1, “NEW N-PHENYLPYRROLAMIDE INHIBITORS OF DNA GYRASE AND TOPOISOMERASE IV WITH ANTIBACTERIAL ACTIVITY” (priority 2020, published 2025).
pIC50: −log10 of the molar value.

What was measured:
K. pneumoniae ATCC 10031 = assay: Microbroth dilution MIC (CLSI); type: cell-based; settings: Klebsiella pneumoniae, ATCC10031; K. pneumoniae ATCC 10031; read-out: MIC
Experimental: (§1) The chemical entities described in the present invention were assessed for their antimicrobial activity using a microbroth dilution assay as recommended by the CLSI (Methods for Dilution Antimicrobial Susceptibility Tests for Bacteria That Grow Aerobically, and Methods for Antimicrobial Susceptibility Testing of Anaerobic Bacteria, Clinical and Laboratory Standards Institute, Document M07-A8, and M11-A8, Wayne, PA 19087, USA, 2012.). Compounds were dissolved by using 100% DMSO. Serial two-fold dilutions of each compound were made by using 100% DMSO as the diluent.
(§2) A library of Gram-negative and Gram-positive microbes and their drug- and multidrug-resistant variants were employed as test organisms. The MIC (minimum inhibitory concentration) was determined as the lowest concentration of an individual drug that lead to no visible growth.

A. baumannii ATCC 17978 = assay: Microbroth dilution MIC (CLSI); type: cell-based; settings: Acinetobacter baumannii, ATCC17978; A. baumannii ATCC 17978; read-out: MIC
Experimental: as §1, §2

[1] = system: E. spp. cloacae ATCC 13047; assay: Microbroth dilution MIC (CLSI); type: cell-based; settings: Enterobacter cloacae, ATCC13047; E. spp. cloacae ATCC 13047; read-out: MIC
Experimental: as §1, §2

E. faecalis ATCC 29212 = assay: Microbroth dilution MIC (CLSI); type: cell-based; settings: Enterococcus faecalis, ATCC29212; E. faecalis ATCC 29212; read-out: MIC
Experimental: as §1, §2

E. coli ATCC 25922 = assay: Microbroth dilution MIC (CLSI); type: cell-based; settings: Escherichia coli, ATCC25922; E. coli ATCC 25922; read-out: MIC
Experimental: as §1, §2

P. aeruginosa ATCC 27853 = assay: Microbroth dilution MIC (CLSI); type: cell-based; settings: Pseudomonas aeruginosa, ATCC27853; P. aeruginosa ATCC 27853; read-out: MIC
Experimental: as §1, §2

S. aureus ATCC 29213 = assay: Microbroth dilution MIC (CLSI); type: cell-based; settings: Staphylococcus aureus, ATCC29213; S. aureus ATCC 29213; read-out: MIC
Experimental: as §1, §2

[2] = system: S. aureus ATCC 43300 (MRSA); assay: Microbroth dilution MIC (CLSI); type: cell-based; settings: Staphylococcus aureus; S. aureus ATCC 43300 (MRSA); read-out: MIC
Experimental: as §1, §2

E. coli DNA gyrase = biological target: T1, E. coli DNA gyrase (Escherichia coli, UniProt P0AES6); assay: biochemical; settings: E. coli DNA gyrase; for pIC50: read-out: IC50
T1 construct: purchased Inspiralis
Experimental: (§3) Inhibitory activities for compounds of the present invention were determined on E. coli and S. aureus DNA gyrase and topoisomerase IV in an assay from Inspiralis on streptavidin-coated 96-well microtiter plates from Thermo scientific Pierce. […] After washing off the unbound oligonucleotide, the enzyme test was performed. […] Reaction solutions were incubated at 37° C. for 30 min. After that, the TF buffer (50 mM NaOAc with pH 5.0, 50 mM NaCl and 50 mM MgCl2) was added to terminate the enzymatic reaction. After additional incubation for 30 min at rt, during which biotin-oligonucleotide-plasmid triplex was formed, the unbound plasmid was washed off using TF buffer and SybrGOLD in T10 buffer (10 mM Tris HCl with pH 8.0 and 1 mM EDTA) was added. […] GraphPad Prism 6.0 software was used to calculate the IC50 values. The result is given as the average value of three independent measurements. […] Chemoth.

S. aureus DNA gyrase = biological target: T2, S. aureus DNA gyrase (Staphylococcus aureus, UniProt P0A0K8); assay: biochemical; settings: S. aureus DNA gyrase
T2 construct: purchased Inspiralis
Experimental: as §3

[3] = biological target: T3, S. aureus topoisomerase IV (Staphylococcus aureus, UniProt P0C1S7); assay: Topoisomerase IV inhibition assay (Inspiralis, streptavidin-coated plates); type: biochemical; settings: S. aureus topo IV, read-out: RA (residual activity of the enzyme); for remaining activity at 0.1 µM: 0.1 μM compound
T3 construct: purchased Inspiralis
Experimental: (§4) Inhibitory activities for compounds of the present invention were determined on E. coli and S. aureus DNA gyrase and topoisomerase IV in an assay from Inspiralis on streptavidin-coated 96-well microtiter plates from Thermo scientific Pierce. […] After washing off the unbound oligonucleotide, the enzyme test was performed. […] Reaction solutions were incubated at 37° C. for 30 min. After that, the TF buffer (50 mM NaOAc with pH 5.0, 50 mM NaCl and 50 mM MgCl2) was added to terminate the enzymatic reaction. After additional incubation for 30 min at rt, during which biotin-oligonucleotide-plasmid triplex was formed, the unbound plasmid was washed off using TF buffer and SybrGOLD in T10 buffer (10 mM Tris HCl with pH 8.0 and 1 mM EDTA) was added. […] Initial screening was done at 100 or 10 nM concentration of inhibitors against E. coli DNA gyrase or 1 μM or 100 nM concentration against S. aureus DNA gyrase and E. coli and S. aureus topo IV. […] GraphPad Prism 6.0 software was used to calculate the IC50 values. The result is given as the average value of three independent measurements. […] Chemoth.

E. coli topoisomerase IV = biological target: T4, E. coli topoisomerase IV (Escherichia coli, UniProt P20083); assay: biochemical; settings: E. coli topo IV; for remaining activity at 10 µM: 10 μM compound
T4 construct: purchased Inspiralis
Experimental: as §4

E. faecium ATCC 700221 = assay: Microbroth dilution MIC (CLSI); type: cell-based; settings: Enterococcus faecium, ATCC700221; E. faecium ATCC 700221; read-out: MIC
Experimental: as §1, §2

[4] = system: S. aureus ATCC 700699 (VISA); assay: Microbroth dilution MIC (CLSI); type: cell-based; settings: Staphylococcus aureus; S. aureus ATCC 700699 (VISA); read-out: MIC
Experimental: as §1, §2

[5] = read-out: RA (residual activity of the enzyme)

T2 sequence (P20831 whole entry): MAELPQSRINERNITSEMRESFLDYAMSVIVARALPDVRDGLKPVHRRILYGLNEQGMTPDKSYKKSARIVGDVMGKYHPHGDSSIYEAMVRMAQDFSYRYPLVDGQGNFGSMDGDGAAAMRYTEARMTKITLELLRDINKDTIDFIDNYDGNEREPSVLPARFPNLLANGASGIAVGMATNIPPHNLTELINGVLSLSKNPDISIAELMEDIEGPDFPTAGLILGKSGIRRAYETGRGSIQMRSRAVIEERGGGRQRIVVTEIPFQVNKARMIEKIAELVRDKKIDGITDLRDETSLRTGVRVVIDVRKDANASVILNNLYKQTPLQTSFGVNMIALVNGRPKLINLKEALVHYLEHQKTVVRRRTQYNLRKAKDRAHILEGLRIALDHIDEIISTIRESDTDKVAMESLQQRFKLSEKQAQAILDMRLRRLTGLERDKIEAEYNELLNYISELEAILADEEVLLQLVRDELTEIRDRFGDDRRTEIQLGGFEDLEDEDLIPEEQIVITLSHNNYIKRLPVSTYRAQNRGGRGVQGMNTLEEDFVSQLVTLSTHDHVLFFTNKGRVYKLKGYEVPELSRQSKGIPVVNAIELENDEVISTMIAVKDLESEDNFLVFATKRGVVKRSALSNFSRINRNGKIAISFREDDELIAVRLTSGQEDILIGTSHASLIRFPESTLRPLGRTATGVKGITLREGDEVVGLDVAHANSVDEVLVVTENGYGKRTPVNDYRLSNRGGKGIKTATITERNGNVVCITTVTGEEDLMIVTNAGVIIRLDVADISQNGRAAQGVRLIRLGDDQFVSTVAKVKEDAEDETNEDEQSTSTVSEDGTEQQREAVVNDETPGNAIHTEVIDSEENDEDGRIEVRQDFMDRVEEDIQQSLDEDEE
T2 sequence (P0A0K8 whole entry): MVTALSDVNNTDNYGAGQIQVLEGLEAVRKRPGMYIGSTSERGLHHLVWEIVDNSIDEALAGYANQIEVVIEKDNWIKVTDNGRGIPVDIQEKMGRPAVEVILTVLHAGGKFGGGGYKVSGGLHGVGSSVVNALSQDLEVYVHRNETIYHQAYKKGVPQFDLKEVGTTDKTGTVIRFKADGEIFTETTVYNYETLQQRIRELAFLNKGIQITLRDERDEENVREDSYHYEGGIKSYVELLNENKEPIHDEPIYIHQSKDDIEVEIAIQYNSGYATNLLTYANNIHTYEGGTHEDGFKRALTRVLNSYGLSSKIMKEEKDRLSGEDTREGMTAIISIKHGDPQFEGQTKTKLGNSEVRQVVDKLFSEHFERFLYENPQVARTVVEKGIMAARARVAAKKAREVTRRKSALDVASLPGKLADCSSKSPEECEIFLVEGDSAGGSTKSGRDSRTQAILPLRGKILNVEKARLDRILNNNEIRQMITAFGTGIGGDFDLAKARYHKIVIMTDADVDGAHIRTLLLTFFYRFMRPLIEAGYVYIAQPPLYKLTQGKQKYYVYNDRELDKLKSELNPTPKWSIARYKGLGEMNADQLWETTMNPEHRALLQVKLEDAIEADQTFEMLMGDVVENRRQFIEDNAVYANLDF
T3 sequence (P0C1U9 whole entry): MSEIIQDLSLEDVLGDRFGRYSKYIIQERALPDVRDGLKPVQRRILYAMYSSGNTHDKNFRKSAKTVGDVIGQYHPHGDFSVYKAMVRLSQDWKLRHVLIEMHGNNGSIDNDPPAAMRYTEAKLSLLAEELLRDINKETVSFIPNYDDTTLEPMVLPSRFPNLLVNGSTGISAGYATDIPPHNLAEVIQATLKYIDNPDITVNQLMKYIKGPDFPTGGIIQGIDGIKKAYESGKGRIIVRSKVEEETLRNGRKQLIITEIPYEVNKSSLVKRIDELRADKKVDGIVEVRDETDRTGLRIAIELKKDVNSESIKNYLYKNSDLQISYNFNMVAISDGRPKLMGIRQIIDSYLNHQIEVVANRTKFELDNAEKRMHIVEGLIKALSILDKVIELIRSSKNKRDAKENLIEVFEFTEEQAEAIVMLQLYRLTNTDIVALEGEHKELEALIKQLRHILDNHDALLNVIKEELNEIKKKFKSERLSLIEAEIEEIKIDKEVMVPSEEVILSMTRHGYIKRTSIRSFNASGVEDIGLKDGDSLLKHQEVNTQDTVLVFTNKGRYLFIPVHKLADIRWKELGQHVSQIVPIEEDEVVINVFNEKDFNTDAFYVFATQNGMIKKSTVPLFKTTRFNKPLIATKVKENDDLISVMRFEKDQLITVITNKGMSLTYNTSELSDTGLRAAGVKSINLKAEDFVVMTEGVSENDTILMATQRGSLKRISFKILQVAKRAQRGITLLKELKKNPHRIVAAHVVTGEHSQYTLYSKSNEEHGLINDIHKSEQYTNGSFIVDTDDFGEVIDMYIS
T3 sequence (P0C1S7 whole entry): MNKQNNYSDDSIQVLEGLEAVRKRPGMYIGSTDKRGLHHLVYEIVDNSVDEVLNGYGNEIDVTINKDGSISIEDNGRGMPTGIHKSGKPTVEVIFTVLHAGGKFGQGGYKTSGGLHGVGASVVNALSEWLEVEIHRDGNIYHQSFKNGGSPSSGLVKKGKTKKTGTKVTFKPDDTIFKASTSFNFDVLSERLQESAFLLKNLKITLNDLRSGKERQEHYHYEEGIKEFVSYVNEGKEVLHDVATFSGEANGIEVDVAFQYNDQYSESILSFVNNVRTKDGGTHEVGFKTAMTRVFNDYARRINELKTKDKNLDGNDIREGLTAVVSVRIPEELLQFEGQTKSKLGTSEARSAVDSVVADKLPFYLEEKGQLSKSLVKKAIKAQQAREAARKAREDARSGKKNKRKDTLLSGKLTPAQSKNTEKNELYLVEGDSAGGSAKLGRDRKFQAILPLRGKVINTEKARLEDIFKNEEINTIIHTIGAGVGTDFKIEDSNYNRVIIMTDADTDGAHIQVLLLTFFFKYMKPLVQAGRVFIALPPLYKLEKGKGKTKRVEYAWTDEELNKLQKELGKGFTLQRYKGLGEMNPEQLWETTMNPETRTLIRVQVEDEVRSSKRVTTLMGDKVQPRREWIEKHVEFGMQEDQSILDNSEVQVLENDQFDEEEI
T4 sequence (P0AFI2 whole entry): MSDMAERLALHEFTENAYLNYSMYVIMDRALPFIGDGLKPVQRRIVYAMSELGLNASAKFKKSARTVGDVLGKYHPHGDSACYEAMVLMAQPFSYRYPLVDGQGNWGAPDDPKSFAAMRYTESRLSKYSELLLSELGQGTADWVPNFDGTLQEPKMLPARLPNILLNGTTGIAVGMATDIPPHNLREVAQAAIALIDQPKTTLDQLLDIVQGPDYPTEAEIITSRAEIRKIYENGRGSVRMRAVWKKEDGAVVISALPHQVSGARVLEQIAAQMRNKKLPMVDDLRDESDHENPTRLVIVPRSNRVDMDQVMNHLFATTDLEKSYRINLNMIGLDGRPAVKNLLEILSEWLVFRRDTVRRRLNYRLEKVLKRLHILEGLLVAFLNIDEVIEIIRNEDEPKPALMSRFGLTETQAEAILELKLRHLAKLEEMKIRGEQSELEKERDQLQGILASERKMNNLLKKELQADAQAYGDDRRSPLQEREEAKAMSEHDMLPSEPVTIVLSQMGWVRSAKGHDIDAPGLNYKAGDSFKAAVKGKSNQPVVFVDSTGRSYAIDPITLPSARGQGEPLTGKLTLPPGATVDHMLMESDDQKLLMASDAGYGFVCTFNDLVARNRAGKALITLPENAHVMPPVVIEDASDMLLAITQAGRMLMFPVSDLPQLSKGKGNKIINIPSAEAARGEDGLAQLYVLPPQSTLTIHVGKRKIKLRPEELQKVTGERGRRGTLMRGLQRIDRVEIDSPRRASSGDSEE
T4 sequence (P20083 whole entry): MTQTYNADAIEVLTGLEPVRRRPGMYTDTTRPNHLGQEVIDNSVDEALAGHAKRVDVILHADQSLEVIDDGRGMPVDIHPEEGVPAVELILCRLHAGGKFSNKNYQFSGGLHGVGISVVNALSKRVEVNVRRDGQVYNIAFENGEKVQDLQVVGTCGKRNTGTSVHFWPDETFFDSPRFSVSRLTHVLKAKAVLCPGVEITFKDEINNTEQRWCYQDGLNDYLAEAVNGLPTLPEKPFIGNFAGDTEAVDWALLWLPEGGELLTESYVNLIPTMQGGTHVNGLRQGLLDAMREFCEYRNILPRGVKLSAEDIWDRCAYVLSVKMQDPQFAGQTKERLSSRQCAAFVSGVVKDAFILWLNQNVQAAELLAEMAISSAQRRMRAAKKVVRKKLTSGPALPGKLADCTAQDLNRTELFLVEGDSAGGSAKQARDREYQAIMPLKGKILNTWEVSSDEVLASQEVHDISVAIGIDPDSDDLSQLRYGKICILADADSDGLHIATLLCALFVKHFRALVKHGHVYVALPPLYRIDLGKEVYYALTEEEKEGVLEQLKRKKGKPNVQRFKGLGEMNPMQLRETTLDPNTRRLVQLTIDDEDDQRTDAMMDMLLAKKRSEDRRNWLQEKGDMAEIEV

Cc1[nH]c(C(=O)Nc2ccc(-c3n[nH]c(=O)o3)cc2N2CC[C@H](N)C2)c(Cl)c1Cl.Cl [Example 20, (S)-1-(2-(3,4-Dichloro-5-methyl-1H-pyrrole-2-carboxamido)-5-(5-oxo-4,5-dihydro-1,3,4-oxadiazol-2-yl)phenyl)pyrrolidin-3-aminium chloride]
MIC (K. pneumoniae ATCC 10031): 0.064 µg/mL
MIC (A. baumannii ATCC 17978): 8 µg/mL
MIC [1]: 32 µg/mL
MIC (E. faecalis ATCC 29212): 1 µg/mL
MIC (E. coli ATCC 25922): 8 µg/mL
MIC (P. aeruginosa ATCC 27853): 32 µg/mL
MIC (S. aureus ATCC 29213): 2 µg/mL
MIC [2]: 2 µg/mL
pIC50 (E. coli DNA gyrase): 8.55
remaining activity at 0.01 µM (S. aureus DNA gyrase; 0.01 μM compound, read-out: RA (residual activity of the enzyme)): 90%
remaining activity at 0.1 µM (S. aureus DNA gyrase; 0.1 μM compound, read-out: RA (residual activity of the enzyme)): 39%
remaining activity at 0.1 µM [3]: 99%
remaining activity at 1 µM (E. coli topoisomerase IV; 1 μM compound, read-out: RA (residual activity of the enzyme)): 105%

Cc1[nH]c(C(=O)Nc2ccc(-c3n[nH]c(=O)o3)cc2OCCC2CCNCC2)c(Cl)c1Cl.Cl [Example 29, 4-(2-(2-(3,4-Dichloro-5-methyl-1H-pyrrole-2-carboxamido)-5-(5-oxo-4,5-dihydro-1,3,4-oxadiazol-2-yl)phenoxy)ethyl)piperidin-1-ium chloride]
MIC (K. pneumoniae ATCC 10031): ≥ 32 µg/mL
MIC (A. baumannii ATCC 17978): ≥ 32 µg/mL
MIC [1]: ≥ 32 µg/mL
MIC (E. faecalis ATCC 29212): ≥ 32 µg/mL
MIC (E. faecium ATCC 700221): ≥ 32 µg/mL
MIC (E. coli ATCC 25922): ≥ 32 µg/mL
MIC (P. aeruginosa ATCC 27853): ≥ 32 µg/mL
MIC [4]: ≥ 32 µg/mL
MIC (S. aureus ATCC 29213): ≥ 32 µg/mL
MIC [2]: ≥ 32 µg/mL
remaining activity at 0.01 µM (E. coli DNA gyrase; 10 nM compound, read-out: RA (residual activity of the enzyme)): 1%
remaining activity at 10 µM (E. coli topoisomerase IV; [5]): 103%

Cc1[nH]c(C(=O)Nc2ccc(-c3n[nH]c(=O)o3)cc2OCc2ccccc2)c(Cl)c1Cl [Example 11, N-(2-(Benzyloxy)-4-(5-oxo-4,5-dihydro-1,3,4-oxadiazol-2-yl)phenyl)-3,4-dichloro-5-methyl-1H-pyrrole-2-carboxamide]
MIC (K. pneumoniae ATCC 10031): ≥ 32 µg/mL
MIC (A. baumannii ATCC 17978): ≥ 32 µg/mL
MIC [1]: ≥ 32 µg/mL
MIC (E. faecalis ATCC 29212): ≥ 32 µg/mL
MIC (E. faecium ATCC 700221): ≥ 32 µg/mL
MIC (E. coli ATCC 25922): ≥ 32 µg/mL
MIC (P. aeruginosa ATCC 27853): ≥ 32 µg/mL
MIC [4]: ≥ 32 µg/mL
MIC (S. aureus ATCC 29213): ≥ 32 µg/mL
MIC [2]: ≥ 32 µg/mL
pIC50 (E. coli DNA gyrase): 6.05
remaining activity at 10 µM (E. coli topoisomerase IV; [5]): 106%

Cc1[nH]c(C(=O)Nc2ccc(-c3nn[nH]n3)cc2N2CCCC(CN)C2)c(Cl)c1Cl.Cl (centres unmarked) [Example 9, (1-(2-(3,4-Dichloro-5-methyl-1H-pyrrole-2-carboxamido)-5-(2H-tetrazol-5-yl)phenyl)piperidin-3-yl)methanaminium chloride]
MIC (K. pneumoniae ATCC 10031): 64 µg/mL
MIC (A. baumannii ATCC 17978): > 64 µg/mL
MIC [1]: > 64 µg/mL
MIC (E. faecalis ATCC 29212): 8 µg/mL
MIC (E. faecium ATCC 700221): 16 µg/mL
MIC (E. coli ATCC 25922): > 64 µg/mL
MIC (P. aeruginosa ATCC 27853): > 64 µg/mL
MIC [4]: > 64 µg/mL
MIC (S. aureus ATCC 29213): 16 µg/mL
MIC [2]: > 64 µg/mL
pIC50 (E. coli DNA gyrase): 8.67
pIC50 (S. aureus DNA gyrase; read-out: IC50): 7.46
pIC50 (E. coli topoisomerase IV; read-out: IC50): 7.22

Cc1[nH]c(C(=O)Nc2ccc(-c3noc(=O)[nH]3)cc2N2CCOCC2)c(Cl)c1Cl [Example 8, 3,4-Dichloro-5-methyl-N-(2-morpholino-4-(5-oxo-4,5-dihydro-1,2,4-oxadiazol-3-yl)phenyl)-1H-pyrrole-2-carboxamide]
pIC50 (E. coli DNA gyrase): 7.89
remaining activity at 0.1 µM [3]: 51%
remaining activity at 1 µM ([3]; 1 μM compound): 10%
